What was measured:
Type in all cases: biochemical
Human DNA polymerase κ = biological target: T1, Human DNA polymerase κ (Homo sapiens, UniProt Q9UBT6); assay: DNA polymerase assay, human pol κ
T1 construct: A truncated form of pol κ (i.e., hDINB1DC); 6xHis (C); made in house; host or cells: baculovirus expression system (insect cells)
T1 sequence (Q9UBT6 1-560 limits assumed): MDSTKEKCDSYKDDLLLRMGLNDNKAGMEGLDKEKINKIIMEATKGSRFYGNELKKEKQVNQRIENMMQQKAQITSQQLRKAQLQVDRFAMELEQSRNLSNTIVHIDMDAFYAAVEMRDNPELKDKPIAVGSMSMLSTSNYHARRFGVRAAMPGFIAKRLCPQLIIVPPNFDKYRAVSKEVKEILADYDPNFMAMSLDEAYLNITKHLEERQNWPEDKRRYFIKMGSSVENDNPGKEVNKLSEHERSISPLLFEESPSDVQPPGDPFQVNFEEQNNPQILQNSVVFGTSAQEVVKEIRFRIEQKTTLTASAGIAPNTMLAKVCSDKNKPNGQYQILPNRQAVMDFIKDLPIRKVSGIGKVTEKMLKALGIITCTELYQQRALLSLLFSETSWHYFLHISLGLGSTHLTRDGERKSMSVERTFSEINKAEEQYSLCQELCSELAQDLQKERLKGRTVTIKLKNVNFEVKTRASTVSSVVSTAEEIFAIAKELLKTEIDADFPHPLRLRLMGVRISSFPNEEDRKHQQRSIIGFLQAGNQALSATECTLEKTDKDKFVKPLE
Description: (§1) Pol α was purified from calf thymus by immuno-affinity column chromatography as described by Tamai et al.. Recombinant rat pol β was purified from E. coli JMpβ5 as described by Date et al.. The human pol γ catalytic gene was cloned into pFastBac. Histidine-tagged enzyme was expressed using the BAC-TO-BAC HT Baculovirus Expression System according to the supplier's manual (LIFE TECHNOLOGIES, MD, USA) and purified using ProBoundresin (Invitrogen Japan, Tokyo, Japan). Human pols δ and ε were purified by the nuclear fractionation of human peripheral blood cancer cells (Molt-4) using the second subunit of pols δ and ε-conjugated affinity column chromatography, respectively. Recombinant human pols η and ι tagged with His6 at their C-terminal were expressed in SF9 insect cells using the baculovirus expression system, and were purified as described previously. A truncated form of pol κ (i.e., hDINB1DC) with 6 x His-tags attached at the C-terminal was overproduced using the BAC-to-BAC Baculovirus Expression System kit (GIBCO BRL, MD, USA) and purified as described previously. […]
(§2) For pols, poly(dA)/oligo(dT)12-18 (A/T = 2/1) and dTTP were used as the DNA template-primer and nucleotide (i.e., dNTP) substrate, respectively. […] Activity without the inhibitor was considered 100%, and the remaining activity at each concentration of the inhibitor was determined relative to this value. […]

Human DNA polymerase ι = biological target: T2, Human DNA polymerase ι (Homo sapiens, UniProt Q9UNA4); assay: DNA polymerase assay, human pol ι
T2 construct: His6 (C); made in house; host or cells: SF9 insect cells (baculovirus)
T2 sequence (Q9UNA4 1-740): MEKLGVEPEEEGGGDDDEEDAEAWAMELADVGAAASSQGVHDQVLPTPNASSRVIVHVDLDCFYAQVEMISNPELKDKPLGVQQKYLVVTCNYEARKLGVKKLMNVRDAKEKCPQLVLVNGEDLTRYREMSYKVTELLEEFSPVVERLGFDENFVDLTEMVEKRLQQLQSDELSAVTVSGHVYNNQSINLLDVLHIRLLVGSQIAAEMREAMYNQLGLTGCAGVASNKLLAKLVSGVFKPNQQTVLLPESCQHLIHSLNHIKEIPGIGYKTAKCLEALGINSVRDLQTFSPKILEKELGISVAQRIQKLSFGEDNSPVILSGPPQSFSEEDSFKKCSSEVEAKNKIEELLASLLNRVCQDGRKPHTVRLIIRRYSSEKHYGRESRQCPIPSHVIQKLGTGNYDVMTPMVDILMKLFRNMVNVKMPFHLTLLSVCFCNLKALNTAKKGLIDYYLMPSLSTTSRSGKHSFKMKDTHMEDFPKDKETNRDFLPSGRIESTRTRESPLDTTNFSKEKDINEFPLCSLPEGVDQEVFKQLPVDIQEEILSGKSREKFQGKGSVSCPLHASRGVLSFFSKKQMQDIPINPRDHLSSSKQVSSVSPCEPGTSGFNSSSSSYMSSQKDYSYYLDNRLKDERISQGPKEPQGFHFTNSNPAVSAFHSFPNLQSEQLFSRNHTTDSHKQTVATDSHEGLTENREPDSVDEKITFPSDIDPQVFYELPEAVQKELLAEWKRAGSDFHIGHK
Description: as §1, §2

[1] = biological target: T3, Bovine Deoxyribonuclease I (Bos taurus, UniProt P00639); assay: Deoxyribonuclease I assay
T3 construct: Bovine pancreas deoxyribonuclease I (DNase I) was obtained from Stratagene Cloning Systems; purchased Stratagene Cloning Systems (La Jolla, CA, USA); host or cells: bovine pancreas
Description: as §1
The primase activity of calf pol α, the activities of T7 RNA polymerase, T4 polynucleotide kinase and bovine DNase I were measured in standard assays according to the manufacturer's specifications as described by Tamiya-Koizumi et al., Nakayama et al., Soltis et al., and Lu and Sakaguchi, respectively.

T3 sequence (P00639 23-282): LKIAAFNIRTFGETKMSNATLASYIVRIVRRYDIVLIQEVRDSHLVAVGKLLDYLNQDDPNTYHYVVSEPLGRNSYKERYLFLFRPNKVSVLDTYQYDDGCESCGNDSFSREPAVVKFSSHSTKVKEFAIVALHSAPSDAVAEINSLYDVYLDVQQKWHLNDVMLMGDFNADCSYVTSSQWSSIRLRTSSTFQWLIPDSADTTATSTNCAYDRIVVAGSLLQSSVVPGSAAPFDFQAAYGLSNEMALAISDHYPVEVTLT

Structure (SMILES): CC1=CC[C@H]2C(C)(C)CCC[C@]2(C)[C@H]1CCCCCCCCCCCCCCCCC(=O)O (relative stereo) [compound 11, (1S*,4aS*,8aS*)-17-(1,4,4a,5,6,7,8,8a-octahydro-2,5,5,8a-tetramethylnaphthalen-1-yl)heptadecanoic acid]
- IC50 (Human DNA polymerase κ): 7.2 ± 0.36 µM
- IC50 (Human DNA polymerase ι): 7.84 ± 0.39 µM
- IC50 [1]: > 200 µM

Reference: paper PMC6253949, “The Inhibitory Action of Kohamaic Acid A Derivatives on Mammalian DNA Polymerase β” (Molecules, 2008)
